For orientation: half-life means the time needed for the level to fall by half in the phase considered. One may read the CLint scaled as the capacity of the preparation to metabolise the compound, expressed as a volume cleared per time.

The series in a line: Metabolic stability in human liver microsomes. The class given is in vitro ADME. The note with it: 0.25 μM test compound; for half-life at 0.25 μM: 2 mM NADPH, 37° C.; for CLint scaled at 0.25 μM: human liver microsomes. The protocol:
Microsomal Assay: Human liver microsomes (20 mg/mL) were obtained from Xenotech, LLC (Lenexa, Kans.). β-nicotinamide adenine dinucleotide phosphate, reduced form (NADPH), magnesium chloride (MgCl2), and dimethyl sulfoxide (DMSO) were purchased from Sigma-Aldrich.
Determination of Metabolic Stability: 7.5 mM stock solutions of test compounds of structural formula (I) (e.g., of an embodiment or aspect of embodiment thereof described herein) or structural formula (II), or pharmaceutically acceptable salt thereof, were prepared in DMSO. The 7.5 mM stock solutions were diluted to 12.5-50 μM in acetonitrile (ACN). The 20 mg/mL human liver microsomes were diluted to 0.625 mg/mL in 0.1 M potassium phosphate buffer, pH 7.4, containing 3 mM MgCl2. The diluted microsomes were added to wells of a 96-well deep-well polypropylene plate in triplicate. A 10 μL aliquot of the 12.5-50 μM test compound was added to the microsomes and the mixture was pre-warmed for 10 minutes. Reactions were initiated by addition of pre-warmed NADPH solution. The final reaction volume was 0.5 mL and contained […] human liver microsomes, 0.25 μM test compound, and 2 mM NADPH in 0.1 M potassium phosphate buffer, pH 7.4, and 3 mM MgCl2. The reaction mixtures were incubated at 37° C., and 50 μL aliquots were removed at 0, 5, 10, 20, and 30 minutes and added to shallow-well 96-well plates which contain 50 μL of ice-cold ACN (acetonitrile) with internal standard to stop the reactions. The plates were stored at 4° C. for 20 minutes after which 100 μL of water was added to the wells of the plate before centrifugation to pellet precipitated proteins. Supernatants were transferred to another 96-well plate and analyzed for amounts of parent remaining by LC-MS/MS using an Applied Bio-systems API 4000 mass spectrometer. The same procedure was followed for the non-deuterated counterpart of the compound of Formula I and the positive control, 7-ethoxycoumarin (1 μM). Testing was done in triplicate.
Data analysis: The in vitro t1/2s for test compounds were calculated from the slopes of the linear regression of % parent remaining (ln) vs incubation time relationship.
k=−[slope of linear regression of % parent remaining (ln) vs incubation time]
The apparent intrinsic clearance was calculated using the following equation:
CLint(mL/min/kg)=(0.693/in vitro t1/2)(Incubation Volume/mg of microsomes)(45 mg microsomes/gram of liver)(20 gm of liver/kg b.w.)
Data analysis was performed using Microsoft Excel Software.
For orientation: Liver microsomes are a subcellular fraction often used to study metabolism.

[1] abbreviates: pH 7.4, EXP# 2506, 4.0 mg/mL human liver microsomes.
Setting [2] is: pH 7.4, EXP# 2506, apparent intrinsic clearance.
Where [3] appears, read: pH 7.4, EXP# 2503, 4.0 mg/mL human liver microsomes.
Setting [4] is: pH 7.4, EXP#2503, apparent intrinsic clearance.

In the case of `[2H]C([2H])([2H])Oc1cccc([C@H](O)C2CCN(CCc3ccc(F)cc3)CC2)c1OC` [Compound 115, (R)-(1-(4-fluorophenethyl)piperidin-4-yl)(2-methoxy-3-(methoxy-d3)phenyl)methanol], the half-life at 0.25 μM under setting [1] was found to be 1.16 h. For the same molecule, the CLint scaled at 0.25 μM under setting [2] worked out at 2.3 mL/min/kg.

For the molecule `[2H]C([2H])([2H])Oc1c(OC)cccc1[C@H](O)C1CCN(CCc2ccc(F)cc2)CC1` [Compound 131, (R)-(1-(4-fluorophenethyl)piperidin-4-yl)(3-methoxy-2-(methoxy-d3)phenyl)methanol], the half-life at 0.25 μM under setting [1] came out at 1.19 h. Besides, the CLint scaled at 0.25 μM under setting [2] came to 2.4 mL/min/kg.

As for `[2H]C([2H])([2H])Oc1cccc([C@H](O)C2CCN(CCc3ccc(F)cc3)CC2)c1OC([2H])([2H])[2H]` [Compound 147, (R)-(2,3-bis(methoxy-d3)phenyl)(1-(4-fluorophenethyl)piperidin-4-yl)methanol], the half-life at 0.25 μM under setting [1] was found to be 1.12 h. Moreover, under setting [2], the CLint scaled at 0.25 μM was determined as 2.3 mL/min/kg.

For the molecule `[2H]C([2H])([2H])Oc1cccc([C@]([2H])(O)C2CCN(CCc3ccc(F)cc3)CC2)c1OC([2H])([2H])[2H]` [Compound 148, (R)-(2,3-bis(methoxy-d3)phenyl)(1-(4-fluorophenethyl)piperidin-4-yl)methan-d-ol], under setting [1], the half-life at 0.25 μM turned out to be 1.19 h. Moreover, under setting [2], the intrinsic metabolic clearance (CLint scaled) at 0.25 μM was 2.2 mL/min/kg.

In the case of `[2H]C([2H])([2H])Oc1cccc([C@H](O)C2CCN(C([2H])([2H])Cc3ccc(F)cc3)CC2)c1OC([2H])([2H])[2H]` [Compound 151, (R)-(2,3-bis(methoxy-d3)phenyl)(1-(2-(4-fluorophenyl)ethyl-1,1-d2)piperidin-4-yl)methanol], the half-life at 0.25 μM under setting [1] was determined as 1.17 h. Besides, under setting [2], the CLint scaled at 0.25 μM was found to be 2.3 mL/min/kg.

With `[2H]C([2H])([2H])Oc1cccc([C@H](O)C2CCN(C([2H])([2H])C([2H])([2H])c3ccc(F)cc3)CC2)c1OC([2H])([2H])[2H]` [Compound 159, (R)-(2,3-bis(methoxy-d3)phenyl)(1-(2-(4-fluorophenyl)ethyl-1,1,2,2-d4)piperidin-4-yl)methanol], the half-life at 0.25 μM under setting [1] was 1.42 h. Further, the CLint scaled at 0.25 μM under setting [2] was 1.9 mL/min/kg.

Take `[2H]C1([2H])N(CCc2ccc(F)cc2)C([2H])([2H])C([2H])([2H])C([2H])([C@@H](O)c2cccc(OC)c2OC)C1([2H])[2H]` [Compound 203, (R)-(2,3-dimethoxyphenyl)(1-(4-fluorophenethyl)piperidin-4-yl-2,2,3,3,4,5,5,6,6-d9)methanol]: the half-life at 0.25 μM under setting [3] was determined as 0.794 h. In addition, under setting [4], the CLint scaled at 0.25 μM came out at 3.4 mL/min/kg.

`[2H]C([2H])(Cc1ccc(F)cc1)N1C([2H])([2H])C([2H])([2H])C([2H])([C@@H](O)c2cccc(OC)c2OC)C([2H])([2H])C1([2H])[2H]` [Compound 215, (R)-(2,3-dimethoxyphenyl)(1-(2-(4-fluorophenyl)ethyl-1,1-d2)piperidin-4-yl-2,2,3,3,4,5,5,6,6-d9)methanol] registered a half-life at 0.25 μM under setting [3] of 0.777 h. In addition, under setting [4], the CLint scaled at 0.25 μM amounted to 3.4 mL/min/kg.

`[2H]C([2H])([2H])Oc1cccc([C@H](O)C2([2H])C([2H])([2H])C([2H])([2H])N(CCc3ccc(F)cc3)C([2H])([2H])C2([2H])[2H])c1OC([2H])([2H])[2H]` [Compound 347, (R)-(2,3-bis(methoxy-d3)phenyl)(1-(4-fluorophenethyl)piperidin-4-yl-2,2,3,3,4,5,5,6,6-d9)methanol] registered a half-life at 0.25 μM under setting [3] of 0.815 h. For the same molecule, under setting [4], the CLint scaled at 0.25 μM worked out at 3.2 mL/min/kg.

Consider `[2H]C([2H])([2H])Oc1cccc([C@H](O)C2([2H])C([2H])([2H])C([2H])([2H])N(C([2H])([2H])Cc3ccc(F)cc3)C([2H])([2H])C2([2H])[2H])c1OC([2H])([2H])[2H]` [Compound 359, (R)-(2,3-bis(methoxy-d3)phenyl)(1-(2-(4-fluorophenyl)ethyl-1,1-d2)piperidin-4-yl-2,2,3,3,4,5,5,6,6-d9)methanol], for which the half-life at 0.25 μM under setting [3] was 1.1 h. Besides, under setting [4], the CLint scaled at 0.25 μM is 2.4 mL/min/kg.

In turn, `[2H]C([2H])([2H])Oc1cccc([C@H](O)C2([2H])C([2H])([2H])C([2H])([2H])N(C([2H])([2H])C([2H])([2H])c3ccc(F)cc3)C([2H])([2H])C2([2H])[2H])c1OC([2H])([2H])[2H]` [Compound 383, (R)-(2,3-bis(methoxy-d3)phenyl)(1-(2-(4-fluorophenyl)ethyl-1,1,2,2-d4)piperidin-4-yl-2,2,3,3,4,5,5,6,6-d9)methanol] displayed a half-life at 0.25 μM under setting [3] of 1.23 h. In addition, the CLint scaled at 0.25 μM under setting [4] amounted to 2.3 mL/min/kg.

For `COc1cccc([C@H](O)C2CCN(CCc3ccc(F)cc3)CC2)c1OC` [volinanserin, (R)-(+)-α-(2,3-dimethoxyphenyl)-1-[2-(4-fluorophenyl)ethyl]-4-piperidinemethanol, reference compound], the half-life at 0.25 μM under setting [3] turned out to be 0.745 h and the half-life at 0.25 μM under setting [1] is 0.808 h. In addition, the CLint scaled at 0.25 μM runs as follows: under setting [4], 3.5 mL/min/kg; under setting [2], 3.2 mL/min/kg.

(Values after US20220106272A1 (Terran Biosciences, Inc., priority 2018, published 2022).)
